Assay results reported in US20020086278A1, “CHROMOGENIC MEDIA CONTAINING BLOOD OR HEMIN” (priority 1999, published 2002).

Assay: Precipitate of chromogen on pre-plated media
Format: physicochemical
Conditions: 50 μl DMSO solution on pre-plated media
Method: 50 μl of each chromogen solution was added to the surface of each of the following pre-plated media (one chromogen solution per plate):
The solution was dispersed using a spreader and allowed to dry 3-4 hours in a hood.

With `O=C([O-])[C@H]1O[C@@H](Oc2c[nH]c3ccc(Br)c(Cl)c23)[C@H](O)[C@@H](O)[C@@H]1O.[Na+]` [X-Glucuro(s), 5-Br-4-Cl-3-indolyl-β-D-glucuronide (sodium salt)] the “Precipitate when spread / placed on the plated media” value was “remained clear”.
